Measurements reported in US20080299109A1, “MECHANISM OF ASTRICYTE-NEURON SIGNALING” (Korea Institute of Science and Technology, priority 2007, published 2008).

Tests used:
cultured astrocytes = assay: 3H-glutamate release assay in cultured wild-type astrocytes; type: cell-based, mouse; conditions: 50 μM BAPTA-AM 30 min; 50 μM trans-PDC present or absent
Description: Astrocytes obtained in the above Example 1.1 were loaded with 0.5 μM L-3H-glutamate for 60 min by adding […] of 1 mCi/ml L-3H-glutamate stock solution to 2 ml of DMEM culture media.
Cells were washed with an external solution 3 times.
Agonists (TFLLR 30 μM) were added to the external solution for 6 min and the experiment was terminated by collection of the solution. Each experimental run included a control condition in which no agonist was added. Six replicates were obtained for each drug condition. For analysis, the average radioactivity count was obtained from 6 replicates for each condition and this average was compared to the average of the control condition.
Cells were washed with an external solution and subsequently TFLLR (30 μM) was added for 6 min. […] In the top panel, the thick boxes represent cells in culture media and the white boxes represent cells in external solution.

CA1 pyramidal neurons = assay: Ca2+ dye imaging of CA1 pyramidal neurons in hippocampal slices; type: cell-based, rat; conditions: thrombin 30 nM, TFLLR 30 μM, trans-ACPD 100 μM, (S)-3,5-dihydroxyphenylglycine 30 μM
Description: Young rats (Sprague-Dawley, age P15-P20) or mice (C57/B16, age P14-19) were deeply anesthetized with isoflurane and decapitated. The brain was rapidly removed and submerged in an ice-cold oxygenated artificial cerebrospinal fluid (ACSF) comprised of 130 mM NaCl, 24 mM NaHCO3, 3.5 mM KCl, 1.25 mM NaH2PO4, 1 mM CaCl2,3 mM MgCl2, and 10 mM glucose saturated with 95% O2/5% CO2, at pH 7.4.
The external solution contained 1 μM TTX. Throughout the experiments, −5 mV voltage steps (15 ms duration) were applied at 30 sec intervals from a holding potential of −70 mV to continuously monitor the holding current, series resistance, and membrane input resistance. After entering whole-cell mode, the CA1 pyramidal cells in slices were maintained for 20 min to allow for dye filling before image acquisition using a Princeton Micromax camera.
After the baseline period, TFLLR (30-100 μM) was applied, and images were acquired every 3 sec with a 25 ms exposure to 450-490 nm light for each image. Ca^2+-dependent fluorescence intensity (520 nm) was measured in cell bodies and processes by using Axon Imaging Workbench (v2.2.1) and expressed as ratio image of (F-Fo)/Fo, where Fo is the fluorescence intensity before drug treatment.

[1] = system: cultured wild-type mouse astrocytes; assay: Fura-2 intracellular Ca2+ imaging in cultured wild-type astrocytes; type: cell-based; conditions: 30 μM TFLLR; for level of astrocytic intracellular Ca^2+ (Fura-2 fluorescence ratio): 10 μM bradykinin, 50 μM 2-methyl-thio-ATP, 10 μM ATP, 30 nM thrombin; for effect on TFLLR-induced Ca^2+ response: 1 μM BMS200261, 1 μM thapsigargin, 50 μM BAPTA-AM 30 min, 2 μM U-73122 10 min
Description: Cultured astrocytes were prepared from P0-P3 postnatal mice obtained from KIST SPF. The cerebral cortex was dissected free of adherent meninges, minced, and dissociated into single cell suspension by trituration through a Pasteur pipette. All procedures involving the use of animals were reviewed and approved by the Emory University IACUC. Dissociated cells were plated onto either 12 mm glass coverslips or 6 well plates coated with 0.1 mg/ml poly-D-lysine. Cells were grown in a DMEM media (Gibco, cat# 11960-044) supplemented with 25 mM glucose, 10% heat-inactivated horse serum, and 10% heat-inactivated fetal bovine serum, 2 mM glutamine, and 1000 units/ml penicillin-streptomycin. Cultures were maintained at 37° C. in a humidified 5% CO2-containing atmosphere. […] In some experiments, the culture media was replaced 24 hours after plating with DMEM with all added components except glutamine, and cultures were maintained for 4 days before experimentation in glutamine-free media.
Cultured astrocytes were incubated with 5 µM Fura2-AM in […] pluronic acid (Molecular Probes) for 30 min at room temperature, and subsequently transferred to a microscope stage for imaging. The external solution contained 150 mM NaCl, 10 mM HEPES, 3 mM KCl, 2 mM CaCl2, 2 mM MgCl2, and 5.5 mM glucose, and the pH was adjusted to pH 7.3 and osmolarity to 325 mOsm. Intensity images of a 510 nm wavelength were taken at 340 nm and 380 nm excitation wavelengths using either a Micromax Camera (Princeton) or an intensified video camera (PTI), and the two resulting images were used for ratio calculations using Axon Imaging Workbench version 2.2.1.

PAR1−/− mouse astrocytes = assay: Fura-2 intracellular Ca2+ imaging in cultured PAR1−/− astrocytes; type: cell-based; conditions: 30 μM TFLLR, 30 nM thrombin, 10 μM ATP positive control
Description: Cultured astrocytes were prepared from P0-P3 postnatal mice obtained from KIST SPF. The cerebral cortex was dissected free of adherent meninges, minced, and dissociated into single cell suspension by trituration through a Pasteur pipette. All procedures involving the use of animals were reviewed and approved by the Emory University IACUC. Dissociated cells were plated onto either 12 mm glass coverslips or 6 well plates coated with 0.1 mg/ml poly-D-lysine. Cells were grown in a DMEM media (Gibco, cat# 11960-044) supplemented with 25 mM glucose, 10% heat-inactivated horse serum, and 10% heat-inactivated fetal bovine serum, 2 mM glutamine, and 1000 units/ml penicillin-streptomycin. Cultures were maintained at 37° C. in a humidified 5% CO2-containing atmosphere. Astrocyte cultures prepared in this way were previously determined by GFAP (glial fibrillary acidic protein) staining to be greater than 95% astrocytes (Nicole et al., 2005). In some experiments, the culture media was replaced 24 hours after plating with DMEM with all added components except glutamine, and cultures were maintained for 4 days before experimentation in glutamine-free media.
Cultured astrocytes were incubated with 5 µM Fura2-AM in […] pluronic acid (Molecular Probes) for 30 min at room temperature, and subsequently transferred to a microscope stage for imaging. […]

wild-type astrocytes = assay: Sniffer-patch detection of glutamate release, GluR1(L497Y)-transfected HEK cells on wild-type astrocytes; type: cell-based, mouse
Description: HEK 293 cells (ATCC1573) were plated onto 12 mm glass coverslips coated with 5-10 ug/ml poly-D-lysine and grown in a DMEM media (Gibco, cat# 11960-044) supplemented with 25 mM glucose, 10% heat-inactivated horse serum, and 10% heat-inactivated fetal bovine serum, 2 mM glutamine, and 1000 units/ml penicillin-streptomycin (Banke & Traynelis, 2000; Traynelis & Wahl, 1996). The obtained cultures were maintained at 37° C. in a humidified 5% CO2-containing atmosphere.
HEK 293 cells were transfected with a 1:3.5 ratio of GFP and GluR1(L497Y) using the calcium phosphate method using effectence for 6-8 hours, after which the media was replaced and supplemented with 1 mM kynurenic acid and 10 μM N-(4-hydroxyphenylpropanoyl) spermine or 10 μM CNQX. The transfected HEK cells were subsequently trypsinized and replated onto astrocyte feeder layers derived from either wild-type or PAR1−/− mice 24 hours post-transfection, and recordings performed 24 hours after replating.
(§1) Whole-cell perforated-patch recording from cultured cortical neurons or HEK cells under voltage clamp (holding potential −60 mV) was made with an Axopatch 200B amplifier (Axon Instruments, Union City, Calif.). The recording chamber was continually perfused with a recording solution comprised of 150 mM NaCl, 3 mM KCl, 2 mM CaCl2, 5.5 mM glucose, and 10 mM HEPES (pH 7.4 by NaOH; osmolality adjusted to 315-320 mOsm with sucrose). Recording electrodes (4-7 MΩ) were filled with (in mM) 150 mM CsMeSO4, 10 mM NaCl, 0.5 CaCl2, 10 mM HEPES, and 25-50 μg/ml gramicidin D (pH adjusted to 7.3 with CsOH and osmolality adjusted to 310 mOsm with sucrose). It took 20-30 min to achieve acceptable perforation with series resistance ranging from 30-60 MΩ. All electrophysiological data from cultured neurons cells in this study were collected at room temperature (23-26° C.).
Thus, this technique provides millisecond time resolution for the detection of micromolar levels of glutamate released from astrocytes.
GluR1(L497Y)-transfected HEK cells were directly plated onto an astrocyte monolayer, and subsequently the whole cell HEK current response under voltage clamp during a brief 0.2 sec application of the PAR1 activator TFLLR (500 μM), ATP (300 μM), or bradykinin (180 μM), respectively, from a pressurized pipette was recorded (FIGS. 5a, and 5b).
Concentration(t)=EC50[response(t)/(100−response(t))]^(1/n) (Formula 1)

cultured neurons = assay: Sniffer-patch glutamate release from cultured neurons; type: cell-based; conditions: 10 μM CNQX, 530 mOsm
Description: To verify this prediction, effects of a hyperosmotic solution on the glutamate-release from cultured neurons and astrocytes were evaluated and are shown in FIGS. 7a to 7c.
The detection is abolished by the treatment of 10 μM CNQX.

glutamate transporters = conditions: read-out: IC50 glutamate uptake block; Mitrovic & Johnston, 1994; cited from earlier work
[2] = system: PAR1−/− cortical neurons on wild-type astrocyte monolayer; assay: PAR1−/− cortical neurons co-cultured on wild-type astrocytes: dendritic Ca2+ and voltage clamp; type: cell-based, mouse; conditions: 300 μM TFLLR pressure-applied to astrocytes; 50 μM NMDA
Description: For an astrocyte-neuron co-culture, a monolayer of wild-type astrocytes was grown to 70-100% confluency (7-14 days in culture). Subsequently, the cortex from a P0 to P5 PAR1−/− mouse (Connolly et al., 1996) was dissected free of meninges and digested for 30 min in 1 mg/ml trypsin at 37° C. PAR1−/− mice were >99% C57B1/6 (>7 backcrossings), and wild-type mice were from a colony derived from PAR1−/− littermates.
All experiments were done within 3 generations of establishing the homozygous colony. The cortical cells were plated at low density on top of the monolayer of wild-type astrocytes obtained in above Example 1.1. Neurons were used for Ca^2+ imaging after 1-5 days in culture.
as §1
After a 20 min recovery, the bath perfusion was stopped and TFLLR was applied by brief (<1 sec) pressure ejection onto the astrocyte hosting the dye-loaded neuron in a static bath condition. Changes in fluorescence were monitored in a number of dendritic processes (schematized in FIGS. 8a and 8b).

GluR1(L497Y) = biological target: T1, GluR1(L497Y) (Rattus norvegicus, UniProt P19490, L497Y); assay: Glutamate activation of GluR1(L497Y) in transfected HEK cells; type: cell-based
T1 construct: expressed in transfected cells; host or cells: HEK 293 cells (ATCC1573)
Description: HEK 293 cells were transfected with a 1:3.5 ratio of GFP and GluR1(L497Y) using the calcium phosphate method using effectence for 6-8 hours, after which the media was replaced and supplemented with 1 mM kynurenic acid and 10 μM N-(4-hydroxyphenylpropanoyl) spermine or 10 μM CNQX.
as §1

T1 sequence (P19490 19-907 L497Y): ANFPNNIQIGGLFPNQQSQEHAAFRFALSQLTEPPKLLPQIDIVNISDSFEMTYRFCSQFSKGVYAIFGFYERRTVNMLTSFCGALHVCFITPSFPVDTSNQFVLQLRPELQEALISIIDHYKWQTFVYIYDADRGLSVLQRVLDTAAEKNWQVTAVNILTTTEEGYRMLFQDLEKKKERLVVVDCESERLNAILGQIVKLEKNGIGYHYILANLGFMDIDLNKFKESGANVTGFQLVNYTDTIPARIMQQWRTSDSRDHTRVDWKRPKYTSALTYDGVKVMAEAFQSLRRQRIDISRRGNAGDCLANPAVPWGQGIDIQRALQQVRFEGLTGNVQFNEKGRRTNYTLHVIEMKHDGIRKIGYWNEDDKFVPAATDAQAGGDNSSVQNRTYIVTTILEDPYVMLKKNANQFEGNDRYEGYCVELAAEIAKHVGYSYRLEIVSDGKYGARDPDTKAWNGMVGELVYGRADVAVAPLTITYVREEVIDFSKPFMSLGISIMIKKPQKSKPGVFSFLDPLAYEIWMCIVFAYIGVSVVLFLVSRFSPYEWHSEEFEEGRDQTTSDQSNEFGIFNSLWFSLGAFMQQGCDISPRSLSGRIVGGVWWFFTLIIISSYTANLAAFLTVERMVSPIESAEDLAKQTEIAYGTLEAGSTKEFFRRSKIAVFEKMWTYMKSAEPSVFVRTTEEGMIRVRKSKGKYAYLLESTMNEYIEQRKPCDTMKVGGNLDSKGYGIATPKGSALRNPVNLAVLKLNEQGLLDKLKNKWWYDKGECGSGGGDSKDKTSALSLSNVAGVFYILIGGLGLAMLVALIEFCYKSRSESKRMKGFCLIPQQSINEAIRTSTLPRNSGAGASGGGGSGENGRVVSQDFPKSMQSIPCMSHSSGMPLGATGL

With `CC(=O)OCOC(=O)CN(CC(=O)OCOC(C)=O)c1ccccc1OCCOc1ccccc1N(CC(=O)OCOC(C)=O)CC(=O)OCOC(C)=O` [BAPTA-AM, 1,2-bis(2-aminophenoxy)ethane-N,N,N′,N′-tetra-acetic acid acetoxymethyl ester] the “effect on TFLLR-induced glutamate release” value (cultured astrocytes) was “blocked”.

With `N[C@H](C(=O)O)c1cc(O)cc(O)c1` [(S)-3,5-dihydroxyphenylglycine] the “somatic fluorescence of Ca^2+-sensitive dyes in CA1 pyramidal neurons” value (CA1 pyramidal neurons) was “strong increases”.

With `Nc1ncnc2c1ncn2[C@@H]1O[C@H](COP(=O)(O)OP(=O)(O)OP(=O)(O)O)[C@@H](O)[C@H]1O` [ATP] the “level of astrocytic intracellular Ca^2+ (Fura-2 fluorescence ratio)” value [1] was “increase”, the “intracellular Ca^2+ concentration in PAR1−/− astrocytes” value (PAR1−/− mouse astrocytes) was “still responded” and the “inward current in adjacent GluR1(L497Y)-transfected HEK cell” value (wild-type astrocytes; brief pressure application 500 μM TFLLR, 300 μM ATP, 180 μM bradykinin) was “elicited an inward current”. The peak glutamate concentration (wild-type astrocytes; wild-type astrocytes, converted from current by Formula 1) was ~5.9 µM.

In the case of `N#Cc1cc2[nH]c(=O)c(=O)[nH]c2cc1[N+](=O)[O-]` [CNQX], the “effect on detection of hyperosmotic-solution evoked neuronal glutamate release” value (cultured neurons) is reported as “abolished”, the “effect on TFLLR-evoked inward current in GluR1(L497Y) HEK cell” value (wild-type astrocytes; 10 μM CNQX) is reported as “reversibly inhibits” and the “effect on TFLLR-evoked inward currents, glutamine-free medium” value (wild-type astrocytes; glutamine-free medium) is reported as “completely abolished”.

For `COc1ccc2c(c1)CC[C@@H]1[C@@H]2CC[C@]2(C)[C@@H](NCCCCCCN3C(=O)C=CC3=O)CC[C@@H]12` [U-73122], the “effect on TFLLR-induced Ca^2+ response” value [1] was “similarly blocked”.

With “trans-Cinnamoyl-F(f)-F(Gn)L-Arg-Arg-NH2 [BMS 200261]” the “effect on TFLLR-induced Ca^2+ response” value [1] was “reversibly and completely antagonized”.

For `CSc1nc(N)c2ncn([C@@H]3O[C@H](COP(=O)(O)OP(=O)(O)OP(=O)(O)O)[C@@H](O)[C@H]3O)c2n1` [2-methyl-thio-ATP], the “level of astrocytic intracellular Ca^2+ (Fura-2 fluorescence ratio)” value [1] was “increase”.

In the case of `O=C(O)[C@H]1CN[C@H](C(=O)O)C1` [trans-PDC, L-transpyrrolidine-2,4-dicarboxylic acid], the “effect on TFLLR-induced glutamate release” value (cultured astrocytes) is given as “indistinguishable” and the IC50 (glutamate transporters) is given as 4 to 8 µM.

For `CN[C@H](CC(=O)O)C(=O)O` [NMDA, N-methyl-D-aspartic acid], the “intra-neuronal Ca^2+ in dendrites (Oregon Green BAPTA-2 fluorescence)” value [2] was “saturating response”.

With `C/C=C(/C)C(=O)O[C@H]1C(C)=C2[C@H]([C@@H]1OC(=O)CCCCCCC)[C@@](C)(OC(C)=O)C[C@H](OC(=O)CCC)[C@@]1(O)[C@H]2OC(=O)[C@@]1(C)O` [thapsigargin] the “effect on TFLLR-induced Ca^2+ response” value [1] was “blocked”.

For `N[C@@H](CCC(=O)O)C(=O)O` [glutamate], the Hill slope (GluR1(L497Y)) was 1.3.
